The values that follow come from patent US8906908B2, “Hydroxybupropion analogues for treating drug dependence” (priority 2010, dated 2014).

Assay [1] addresses T1, muscle-type nAChR (α1β1γδ- or α1*-nAChR) (Homo sapiens, UniProt P02708+P07510+P11230+Q07001).
T1 construct: Cells of the TE671/RD line naturally expresses muscle-type nAChR; endogenous in cells; host or cells: TE671/RD cells
In words: 86Rb+ efflux nAChR functional assay, TE671/RD cells. The class given is cell-based. The note with it: nAChR inhibition IC50 α1*β1, EC80-EC90 carbamylcholine, parentheses = S.E.M. as multiplication/division factor. The text has this:
(§1) Cell Lines and Culture: Human embryonic kidney (HEK-293) cells stably expressing human DAT, NET or SERT were maintained as previously described in Eshleman, A. J.; Carmolli, M.; Cumbay, M.; Martens, C. R.; Neve, K. A.; Janowsky, A., J. Pharmacol. Exp. Ther. 1999, 289, (2), 877-885. Use was made of several human cell lines that naturally or heterologously express specific, functional, human nAChR subtypes. Cells of the TE671/RD line naturally expresses muscle-type nAChR (a1β1γδ- or α1*-nAChR), and SH-SY5Y neuroblastoma cells naturally expresses autonomic α3β4*-nAChRs (containing α3, β4, probably α5, and sometimes β2 subunits). Different clones of SH-EP1 epithelial cell lines have been engineered to heterologously express either α4β2-nAChR, which are thought to be the most abundant, high affinity nicotine-binding nAChR in mammalian brain, or α4β4-nAChR, another possible brain nAChR subtype (SH-EP1-hα4β2 or α4β4 cells, respectively). These cells were maintained as low passage number (1-26 from our frozen stocks) cultures to ensure stable expression of native or heterologously-expressed nAChR as previously described (see Lukas, R. J.; Fryer, J. D.; Eaton, J. B.; L., G. C., Some methods for studies of nicotinic acetylcholine receptor pharmacology, in Nicotinic receptors and the Nervous System, Levine, E. D., Ed. CRC Press: Boca Raton, 2002; pp 3-27, incorporated herein by reference in its entirety). Cells were passaged once weekly by splitting just-confluent cultures 1/300 (TE671/RD), 1/5 (SH-SY5Y), or 1/20 (transfected SH-EP1) in serum-supplemented medium to maintain log-phase growth.
(§2) After cells had adhered (generally overnight, but no sooner than 4 h later), the medium was removed and replaced with 250 μL per well of complete medium supplemented with ˜350,000 cpm of ^86Rb^+ (PerkinElmer Life and Analytical Sciences, Boston, Mass.) and counted at 40% efficiency using Cerenkov counting (TriCarb 1900 liquid scintillation analyzer[…]; PerkinElmer Life Sciences).
(§3) After at least 4 h and typically overnight, ^86Rb^+ efflux was measured using the “flip-plate” technique. See Lukas, R. J.; Fryer, J. D.; Eaton, J. B.; L., G. C., Some methods for studies of nicotinic acetylcholine receptor pharmacology, in Nicotinic receptors and the Nervous System, Levine, E. D., Ed. CRC Press: Boca Raton, 2002; pp 3-27, incorporated herein by reference in its entirety). Briefly, after aspiration of the bulk of ^86Rb^+ loading medium from each well of the “cell plate,” each well containing cells was rinsed 3× with 2 mL of fresh ^86Rb^+ efflux buffer (130 mM NaCl, 5.4 mM KCl, 2 mM CaCl2, 5 mM glucose, 50 mM HEPES, pH 7.4) to remove extracellular ^86Rb^+. Following removal of residual rinse buffer by aspiration, the flip-plate technique was used again to simultaneously introduce 1.5 mL of fresh efflux buffer containing drugs of choice at indicated final concentrations from a 24-well “efflux/drug plate” into the wells of the cell plate. After a 5 min incubation, the solution was “flipped” back into the efflux/drug plate, and any remaining buffer in the cell plate was removed by aspiration. Cells remaining in the cell plate were lysed and suspended by addition of 1.5 mL of 0.1 M NaOH, 0.1% sodium dodecyl sulfate to each well.
(§4) Similarly, the sum of ^86Rb^+ in cell plates and efflux/drug plates also determined the efficiency of ^86Rb^+ loading (the percentage of applied ^86Rb^+ actually loaded into cells).
(§5) Specific efflux was then taken as the difference in control samples between total and non-specific ^86Rb^+ efflux. Any intrinsic agonist activity of test drugs was ascertained using samples containing test drug only at different concentrations and was normalized, after subtraction of non-specific efflux, to specific efflux in test drug-free, control samples.

Assay [2] concerns the target T2, α4β4-nAChR (Homo sapiens, UniProt P30926+P43681).
T2 construct: expressed in transfected cells; host or cells: SH-EP1 epithelial cells (SH-EP1-hα4β4)
Briefly: 86Rb+ efflux nAChR functional assay, SH-EP1-hα4β4 cells. The note with it: EC80-EC90 carbamylcholine, parentheses = S.E.M. as multiplication/division factor, read-out: nAChR inhibition IC50 α4β4. The class given is cell-based.
Text: as §1, §2, §3, §4, §5

Assay [3] concerns the target T3, human DA transporters [(h)DAT] (Homo sapiens, UniProt Q01959).
T3 construct: expressed in transfected cells; host or cells: HEK-293
Briefly: Inhibition of [3H]dopamine uptake into HEK293 cells stably expressing hDAT. The class given is cell-based.
Text: as §1
(§6) See, for example, Damaj, M. I.; Carroll, F. I.; Eaton, J. B.; Navarro, H. A.; Blough, B. E.; Mirza, S.; Lukas, R. J.; Martin, B. R., Mol. Pharmacol. 2004, 66, (3), 675-682 and Eshleman, A. J.; Carmolli, M.; Cumbay, M.; Martens, C. R.; Neve, K. A.; Janowsky, A., J. Pharmacol. Exp. Ther. 1999, 289, (2), 877-885, both incorporated by reference herein in their entireties.

In assay [4] the target is T4, NE transporters [h(NET)] (Homo sapiens, UniProt P23975).
T4 construct: expressed in transfected cells; host or cells: HEK-293
In words: Inhibition of [3H]norepinephrine uptake into HEK293 cells stably expressing hNET. The class given is cell-based. Particulars: HEK293-hNET; mean ± standard error of three independent experiments; read-out: monoamine uptake inhibition IC50 [3H]NE.
Text: as §1, §6

Assay [5] addresses T5, 5HT transporters [(h)SERT] (Homo sapiens, UniProt P31645).
T5 construct: expressed in transfected cells; host or cells: HEK-293
Briefly: Inhibition of [3H]serotonin uptake into HEK293 cells stably expressing hSERT. The assay is classed as cell-based.
Text: as §1, §6

Assay [6] has as its target T6, α4β2-nAChR (Homo sapiens, UniProt P17787+P43681).
T6 construct: expressed in transfected cells; host or cells: SH-EP1 epithelial cells (SH-EP1-hα4β2)
Briefly: 86Rb+ efflux nAChR functional assay, SH-EP1-hα4β2 cells. The note with it: EC80-EC90 carbamylcholine; SH-EP1-hα4β2; parentheses = S.E.M. as multiplication/division factor; read-out: nAChR inhibition IC50 α4β2. The assay is classed as cell-based.
Text: as §1, §2, §3, §4, §5

Assay [7] has as its system Male Institute of Cancer Research (ICR) mice. Briefly: Locomotor activity, antagonism of nicotine effect. The assay is classed as in vivo. Particulars: for AD50 Locomotion: pretreatment 15 min before nicotine […] s.c. The text has this:
(§7) Animals: Male Institute of Cancer Research (ICR) mice (weighing 20-25 g) obtained from Harlan (Indianapolis, Ind.) were used throughout the study. Animals were housed in an Association for Assessment and Accreditation of Laboratory Animal Care-approved facility, were placed in groups of six, and had free access to food and water. Studies were approved by the Institutional Animal Care and Use Committee of Virginia Commonwealth University.
Locomotor Activity: Mice were placed into individual Omnitech photocell activity cages (28×16.5 cm; Omnitech Electronics, Columbus, Ohio) 5 min after subcutaneous administration of either 0.9% saline or nicotine (1.5 mg/kg). Interruptions of the photocell beams (two banks of eight cells each) were then recorded for the next 10 min. Data were expressed as the number of photocell interruptions.

Assay [8] has the same test system. In words: Hot-plate test, blockade of nicotine-induced antinociception. Particulars: pretreatment 15 min before nicotine 2.5 mg/kg s.c., tested 5 min after nicotine; for ED50: Mus musculus, read-out: AD50 Hot-plate. The assay is classed as in vivo.
Text: as §7
Hot-Plate Test: Mice were placed into a 10-cm wide glass cylinder on a hot plate (Thermojust Apparatus) maintained at 55° C. for assessment of pain responses mediated at supraspinal levels. To minimize tissue damage, a maximum exposure to the hot plate 40 s was imposed. Measures of control latencies (time until the animal jumped or licked its paws; typically 8-12 s) were done twice for stimuli applied at least 10 min apart for each mouse. Antinociceptive responses after test drug administrations were determined and calculated as the % MPE, where % MPE=[(test latency in s−control latency in s)/(40 s−control latency in s)×100]. Groups of 8 to 12 animals were used for each drug condition. […] The animals were then tested 5 min after administration of a subcutaneous dose of 2.5 mg/kg nicotine.
For orientation: Thermal pain tests record how soon the animal reacts.

The test system is the same in assay [9]. Briefly: Tail-flick test, blockade of nicotine-induced antinociception. The class given is in vivo. The note with it: mice, pretreatment 15 min before nicotine 2.5 mg/kg s.c., tested 5 min after nicotine; for ED50: Mus musculus, 5 min, read-out: AD50 Tail-flick.
Text: as §7
Tail-Flick Test: Antinociception for pain mediated at the spinal level was assessed by the tail-flick method of D'Amour, F. E.; Smith, D. L., J. Pharmacol. Exp. Ther. 1941, 72, 74-79, incorporated herein by reference in its entirety. In brief, mice were lightly restrained while a radiant heat source was shone onto the upper portion of the tail. To minimize tissue damage, a maximum latency of 10 s was imposed. Latency to remove the tail from the heat source was recorded for each animal. […] Antinociceptive response was calculated as the percentage of maximum possible effect (% MPE), where % MPE=[(test control)/(10 control)]×100.

The test system is the same in assay [10]. In words: Body temperature, antagonism of nicotine-induced hypothermia. The assay is classed as in vivo. The note with it: pretreatment 15 min before nicotine 2.5 mg/kg s.c., tested 30 min after nicotine. The protocol:
as §7
Body Temperature: Rectal temperature was measured by a thermistor probe (inserted 24 mm) and digital thermometer (YSI Inc., Yellow Springs, Ohio). Readings were taken just before and 30 min after subcutaneous injection of either saline or 2.5 mg/kg nicotine. The difference in rectal temperature before and after treatment was calculated for each mouse. The ambient temperature of the laboratory varied from 21 to 24° C. from day to day. […] The animals were then tested 30 min after administration of a subcutaneous dose of 2.5 mg/kg nicotine.

Molecules are shown by their SMILES. Like-named read-outs stand apart in the source and are kept apart here.

The term IC50 denotes the point on the concentration scale where inhibition reaches its midpoint.

T1 sequence (P02708 21-457): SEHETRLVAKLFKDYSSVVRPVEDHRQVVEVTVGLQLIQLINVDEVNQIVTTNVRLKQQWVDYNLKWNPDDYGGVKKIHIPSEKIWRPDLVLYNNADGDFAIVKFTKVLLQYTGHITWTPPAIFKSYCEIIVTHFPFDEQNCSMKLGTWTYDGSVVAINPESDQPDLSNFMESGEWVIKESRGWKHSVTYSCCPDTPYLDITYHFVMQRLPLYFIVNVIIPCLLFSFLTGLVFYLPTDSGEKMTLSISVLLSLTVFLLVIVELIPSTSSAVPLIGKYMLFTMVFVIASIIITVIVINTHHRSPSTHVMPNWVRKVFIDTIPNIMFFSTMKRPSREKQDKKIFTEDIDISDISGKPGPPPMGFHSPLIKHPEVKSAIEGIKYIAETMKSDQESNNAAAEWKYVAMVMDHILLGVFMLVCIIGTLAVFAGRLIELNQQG
T1 sequence (P11230 24-501): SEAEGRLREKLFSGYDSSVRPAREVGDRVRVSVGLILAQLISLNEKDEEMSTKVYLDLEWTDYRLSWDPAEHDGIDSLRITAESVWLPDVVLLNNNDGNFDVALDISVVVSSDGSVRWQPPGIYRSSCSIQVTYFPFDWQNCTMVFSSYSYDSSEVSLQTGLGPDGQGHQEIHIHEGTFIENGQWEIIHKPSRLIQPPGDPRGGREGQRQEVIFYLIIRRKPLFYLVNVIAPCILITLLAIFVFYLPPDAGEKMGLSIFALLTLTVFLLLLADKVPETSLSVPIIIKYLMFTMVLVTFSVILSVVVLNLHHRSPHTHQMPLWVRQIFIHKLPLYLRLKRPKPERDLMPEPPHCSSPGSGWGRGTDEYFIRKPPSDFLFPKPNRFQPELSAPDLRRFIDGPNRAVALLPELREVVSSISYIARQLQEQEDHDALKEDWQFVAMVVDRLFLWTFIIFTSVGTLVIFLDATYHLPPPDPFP
T1 sequence (P07510 23-517): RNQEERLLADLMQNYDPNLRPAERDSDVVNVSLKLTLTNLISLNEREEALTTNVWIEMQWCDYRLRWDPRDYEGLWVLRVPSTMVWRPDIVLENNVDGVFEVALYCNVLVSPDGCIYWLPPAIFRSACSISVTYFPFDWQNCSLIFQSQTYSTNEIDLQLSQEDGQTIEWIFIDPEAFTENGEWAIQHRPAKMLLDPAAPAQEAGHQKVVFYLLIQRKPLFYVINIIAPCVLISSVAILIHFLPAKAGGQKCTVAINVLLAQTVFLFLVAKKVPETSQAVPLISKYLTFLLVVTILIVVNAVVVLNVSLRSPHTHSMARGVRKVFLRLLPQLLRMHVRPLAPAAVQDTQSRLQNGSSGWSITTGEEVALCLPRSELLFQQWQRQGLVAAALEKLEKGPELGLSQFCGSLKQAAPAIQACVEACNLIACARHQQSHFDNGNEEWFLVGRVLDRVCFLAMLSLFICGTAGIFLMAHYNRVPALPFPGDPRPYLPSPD
T1 sequence (Q07001 22-517): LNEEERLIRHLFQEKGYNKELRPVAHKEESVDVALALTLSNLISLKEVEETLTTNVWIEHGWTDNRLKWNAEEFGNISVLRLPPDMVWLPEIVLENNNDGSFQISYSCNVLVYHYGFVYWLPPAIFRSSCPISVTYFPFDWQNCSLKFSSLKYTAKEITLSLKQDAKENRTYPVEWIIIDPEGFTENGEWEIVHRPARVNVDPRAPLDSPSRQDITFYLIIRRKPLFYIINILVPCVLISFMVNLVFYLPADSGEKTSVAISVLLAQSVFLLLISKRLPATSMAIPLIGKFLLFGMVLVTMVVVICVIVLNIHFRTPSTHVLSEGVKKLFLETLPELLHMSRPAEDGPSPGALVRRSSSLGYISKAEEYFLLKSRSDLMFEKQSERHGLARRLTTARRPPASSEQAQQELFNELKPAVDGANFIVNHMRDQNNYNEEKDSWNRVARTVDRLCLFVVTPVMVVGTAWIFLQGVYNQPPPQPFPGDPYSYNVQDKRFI
T5 sequence (P31645 whole entry): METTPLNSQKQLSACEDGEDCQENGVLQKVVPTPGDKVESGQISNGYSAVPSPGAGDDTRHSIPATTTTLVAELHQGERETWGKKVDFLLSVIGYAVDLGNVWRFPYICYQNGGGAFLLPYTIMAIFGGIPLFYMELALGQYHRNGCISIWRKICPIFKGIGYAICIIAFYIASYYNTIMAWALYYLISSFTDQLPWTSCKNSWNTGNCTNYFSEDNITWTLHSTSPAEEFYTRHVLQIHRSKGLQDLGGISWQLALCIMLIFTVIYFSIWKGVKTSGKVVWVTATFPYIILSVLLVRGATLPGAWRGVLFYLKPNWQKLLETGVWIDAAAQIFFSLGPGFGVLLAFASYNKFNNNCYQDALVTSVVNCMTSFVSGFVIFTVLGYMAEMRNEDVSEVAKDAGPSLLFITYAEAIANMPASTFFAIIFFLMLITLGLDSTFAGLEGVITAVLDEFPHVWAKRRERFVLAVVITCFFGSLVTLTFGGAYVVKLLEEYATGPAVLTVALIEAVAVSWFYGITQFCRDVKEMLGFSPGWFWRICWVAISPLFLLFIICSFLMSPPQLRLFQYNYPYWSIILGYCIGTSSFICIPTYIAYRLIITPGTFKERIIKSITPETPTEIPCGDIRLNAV
T6 sequence (P43681 29-627 limits assumed): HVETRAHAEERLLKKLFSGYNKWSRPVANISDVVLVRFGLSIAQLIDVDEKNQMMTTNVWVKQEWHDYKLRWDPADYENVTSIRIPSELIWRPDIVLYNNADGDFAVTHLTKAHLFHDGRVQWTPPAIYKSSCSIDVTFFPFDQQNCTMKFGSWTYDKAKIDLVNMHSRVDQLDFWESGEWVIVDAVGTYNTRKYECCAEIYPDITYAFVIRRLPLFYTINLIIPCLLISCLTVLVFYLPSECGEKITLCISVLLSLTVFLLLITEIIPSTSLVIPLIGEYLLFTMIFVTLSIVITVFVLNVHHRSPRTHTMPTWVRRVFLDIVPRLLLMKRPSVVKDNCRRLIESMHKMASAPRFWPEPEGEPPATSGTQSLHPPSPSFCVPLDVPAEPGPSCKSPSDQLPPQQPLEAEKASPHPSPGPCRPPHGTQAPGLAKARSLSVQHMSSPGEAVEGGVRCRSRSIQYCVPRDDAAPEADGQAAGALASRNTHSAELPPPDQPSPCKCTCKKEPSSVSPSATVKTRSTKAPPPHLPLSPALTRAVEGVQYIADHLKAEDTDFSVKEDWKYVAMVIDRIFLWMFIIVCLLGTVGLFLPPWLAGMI
T6 sequence (P17787 26-502): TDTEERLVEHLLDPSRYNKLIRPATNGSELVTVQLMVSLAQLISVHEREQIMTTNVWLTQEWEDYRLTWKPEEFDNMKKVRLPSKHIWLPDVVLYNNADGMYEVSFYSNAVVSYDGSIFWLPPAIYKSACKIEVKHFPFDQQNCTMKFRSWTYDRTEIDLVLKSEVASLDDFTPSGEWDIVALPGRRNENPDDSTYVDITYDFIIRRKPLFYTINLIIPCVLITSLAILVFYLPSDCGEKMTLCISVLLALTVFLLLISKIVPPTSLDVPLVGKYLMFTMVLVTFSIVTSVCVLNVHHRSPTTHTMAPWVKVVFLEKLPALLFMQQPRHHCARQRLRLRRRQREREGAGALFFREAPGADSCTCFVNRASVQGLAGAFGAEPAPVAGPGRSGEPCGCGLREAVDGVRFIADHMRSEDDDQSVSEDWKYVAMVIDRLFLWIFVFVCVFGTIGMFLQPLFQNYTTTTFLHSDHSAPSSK
T2 sequence (P43681 29-627 limits assumed): as the sequence (P43681 29-627 limits assumed) above
T2 sequence (P30926 22-498): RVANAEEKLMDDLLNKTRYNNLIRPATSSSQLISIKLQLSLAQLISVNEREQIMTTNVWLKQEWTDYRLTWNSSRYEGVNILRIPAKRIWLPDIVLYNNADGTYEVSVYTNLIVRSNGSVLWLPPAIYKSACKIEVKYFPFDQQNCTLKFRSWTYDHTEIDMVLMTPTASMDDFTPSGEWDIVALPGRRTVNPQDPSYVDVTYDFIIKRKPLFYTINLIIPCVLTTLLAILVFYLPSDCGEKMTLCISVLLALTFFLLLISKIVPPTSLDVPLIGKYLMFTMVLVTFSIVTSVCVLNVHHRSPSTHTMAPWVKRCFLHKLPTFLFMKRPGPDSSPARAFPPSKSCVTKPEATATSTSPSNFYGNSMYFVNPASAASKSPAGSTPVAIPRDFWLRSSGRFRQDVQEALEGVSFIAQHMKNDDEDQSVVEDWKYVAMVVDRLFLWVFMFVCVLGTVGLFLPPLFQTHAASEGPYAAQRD
T4 sequence (P23975 whole entry): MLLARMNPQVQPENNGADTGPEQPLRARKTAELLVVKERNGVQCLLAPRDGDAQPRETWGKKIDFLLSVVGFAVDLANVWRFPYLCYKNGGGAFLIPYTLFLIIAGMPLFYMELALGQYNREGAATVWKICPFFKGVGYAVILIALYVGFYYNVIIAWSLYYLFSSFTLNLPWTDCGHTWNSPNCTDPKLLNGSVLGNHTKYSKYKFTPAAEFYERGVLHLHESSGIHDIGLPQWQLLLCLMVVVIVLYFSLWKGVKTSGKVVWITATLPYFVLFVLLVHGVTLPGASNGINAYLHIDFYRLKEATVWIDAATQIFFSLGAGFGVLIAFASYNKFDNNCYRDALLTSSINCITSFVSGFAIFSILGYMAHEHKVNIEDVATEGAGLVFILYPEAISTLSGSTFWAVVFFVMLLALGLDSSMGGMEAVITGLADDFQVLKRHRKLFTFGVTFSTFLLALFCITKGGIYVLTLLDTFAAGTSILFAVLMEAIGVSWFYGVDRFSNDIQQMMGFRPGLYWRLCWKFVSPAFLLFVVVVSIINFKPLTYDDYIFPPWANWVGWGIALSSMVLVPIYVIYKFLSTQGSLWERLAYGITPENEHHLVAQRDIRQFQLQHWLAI

On to `CC1NC(C)(C)COC1(O)c1ccccn1` (racemic) [Compound 6, 3,5,5-Trimethyl-2-(pyridin-2-yl)morpholin-2-ol], for which the half-maximal inhibitory concentration (IC50) in assay [1] was over 100 µM; in [2], over 100 µM; in assay [3] it was over 10 µM; in assay [4], 7.95 ± 1.8 µM; in assay [5] (HEK293-hSERT, mean ± standard error of three independent experiments, read-out: monoamine uptake inhibition IC50 [3H]5HT), over 10 µM; in assay [6], over 100 µM.

Consider `C[C@@H]1NC(C)(C)CO[C@@]1(O)c1cccc(Cl)c1` [Compound (2S,3S)-4a, (2S,3S)-2-(3-Chlorophenyl)-3,5,5-trimethylmorpholin-2-ol, reference compound], for which the ED50 in [7] (Mus musculus, pretreatment 15 min before nicotine 1.5 mg/kg s.c., read-out: AD50 Locomotion) is 0.9 mg/kg; in [8], 1 mg/kg; in [9], 0.2 mg/kg. Besides, in [7], the “AD50 Locomotion” value is given as 0.9 mg/kg. The “AD50 Hot-plate” value in [8] was found to be 1 mg/kg.

On to `CCC[C@@H]1NC(C)(C)CO[C@@]1(O)c1cccc(Cl)c1` [Compound 4t, (2S,3S)-2-(3-Chlorophenyl)-5,5-dimethyl-3-propyl-morpholin-2-ol], for which, in [10], the “AD50 Hypothermia” value was “IA (IA: AD50 > 15 mg/kg)”. In addition, in [7], the “AD50 Locomotion” value worked out at 4.7 mg/kg. For the same molecule, the “AD50 Hot-plate” value in assay [8] is reported as “IA (IA: AD50 > 15 mg/kg)”. Moreover, in assay [9], the ED50 amounted to 0.004 mg/kg.

Turning to `CC1NC(C)(C)COC1(O)c1cccnc1` (racemic) [Compound 5, 3,5,5-Trimethyl-2-(pyridin-3-yl)morpholin-2-ol], the half-maximal inhibitory concentration (IC50) in [1] is over 100 µM; in [2] it was over 100 µM; in [3] (HEK293-hDAT, mean ± standard error of three independent experiments, read-out: monoamine uptake inhibition IC50 [3H]DA), over 10 µM; in assay [4], over 10 µM; in [5], over 10 µM; in assay [6], over 100 µM.

As for `C[C@H]1NC(C)(C)CO[C@]1(O)c1cccc(Cl)c1` [Compound (2R,3R)-4a, (2R,3R)-2-(3-Chlorophenyl)-3,5,5-trimethylmorpholin-2-ol, reference compound], the “AD50 Hypothermia” value in assay [10] is recorded as “IA (IA: AD50 > 15 mg/kg)”. The “AD50 Locomotion” value in assay [7] is listed as “IA (IA: AD50 > 15 mg/kg)”. Besides, the ED50 in assay [8] was 10.3 mg/kg; in [9], 2.5 mg/kg.

Regarding `CC(NC(C)(C)C)C(=O)c1cccc(Cl)c1` (racemic) [Compound 2, (±)-2-tert-butylamino-3′-chloropropiophenone, reference compound], the ED50 in assay [10] (Mus musculus, 0.5 h, read-out: AD50 Hypothermia) is 9.2 mg/kg; in assay [8], 15 mg/kg; in assay [9], 1.2 mg/kg. In addition, the “AD50 Hypothermia” value in assay [10] amounted to 9.2 mg/kg. The “AD50 Hot-plate” value in assay [8] was found to be 15 mg/kg. Besides, the “AD50 Tail-flick” value in assay [9] turned out to be 1.2 mg/kg.
